In US6541463B1, “Inhibitors of type 5 and type 3 17β-hydroxysteroid dehydrogenase and methods for their use” (Endorecherche, Inc., priority 1998, dated 2003):

Test system: Shionogi mouse mammary carcinoma cells
Assay: Androgenic activity: stimulation of proliferation of Shionogi cells
Assay type: cell-based
Experimental: In column 9, the androgenic activity of preferred type 5 inhibitors expressed as the percentage of stimulation of proliferation of Shionogi cells at concentrations of 10^−7 M (left number) and 10^−6 M (right number) of inhibitor. The manner in which the stimulation is determined is described in “Other Tests; B-Androgenic/Antiandrogenic Activity”. Lower numbers are desirable. ND means that a determination was not done.
Androgenic/antiandrogenic activity of some preferred compounds has been measured using the Shionogi mouse mammary carcinoma cells.
Minimal essential culture medium (MEM), non-essential amino acids, and fetal calf serum were purchased from Flow Laboratories. In order to remove endogenous steroids, serum was incubated overnight at 4° C. with 1% activated charcoal (Norit A, Fisher) and 0.1% Dextran T-70 (Pharmacia). A 2-h supplementary adsorption was performed at 25° C. in order to further remove protein-bound steroids. Serum was also inactivated by a 20-min incubation at 56° C.
5α-dihydrotestosterone (DHT) was obtained from Steraloids. The antiandrogen hydroxyflutamide (OH-FLU) was kindly supplied by Drs. T. L. Nagabuschan and R. Neri (Schering Corporation, Kenilworth, U.S.A.).
Shionogi male mice bearing androgen-sensitive mammary tumors were obtained from Drs. Keishi Matsumoto, Osaka, Japan, and Yvonne Lefebvre, Ottawa, Canada. For primary culture, tumors were excised and washed in ice-cold sterile 25 mM Hepes buffer (137 mM NaCl; 5 mM KCl; 0.7 mM Na2HPO4; 10 mM glucose, pH 7.2). After mincing with scissors, the tumor minces were digested for 2 h at 37° C. in Hepes buffer containing 3.8 mg/ml collagenase (Clostridium, Boehringer), 1.5 mg/ml hyaluronidase II (Sigma), and 3% bovine serum albumin fraction V (Schwartz-Mann). Dispersed cells were collected by centrifugation (500×g for 10 min), washed twice by suspension in minimal essential medium (MEM) containing 5% dextran-coated charcoal-treated fetal calf serum (DCC-FCS), 1% non-essential amino acids, 10 IU/ml penicillin, 50 μg/ml streptomycin, and 100 nM dihydrotestosterone (DHT) (Steraloids).
Cells were plated in the same medium at a density of 75 000 cells/ml in 75 cm^2 flasks under an atmosphere of 5% carbon dioxide in air at 37° C. The medium was changed weekly. The steroids and antisteroids were dissolved in ethanol and kept in stock solutions chosen to yield final ethanol concentrations less than 0.01% in the culture medium.
Cells were subcultured at near-confidence by gentle digestion in a solution of 0.1% pancreatin (Flow Laboratories) in Hepes buffer containing 3 mM ethylenediaminetetraacetic acid (EDTA) (pH 7.2). Cells were pelleted by centrifugation, resuspended in culture medium, counted in a Coulter counter, and replated as described above. Soft agar cloning was performed as described (Stanley et al., Cell 10: 35-44, 1977) in the presence of 100 nM DHT.
Cells were plated in 24-well plates at a density of 20 000 cells/well. The indicated increasing concentrations of agents were added to triplicate dishes, and cells were grown for 10-12 days with changes of medium every 3-4 days. Cell number was measured by direct counting in a Coulter counter.
ED50 values of action of DHT and glucocorticoids were calculated according to a least-square regression as described (Rodbard, Endocrinology 94: 1427-1431, 1974). Statistical significance was calculated according to a multiple-range test (Kramer, Biometrics 12: 307-310,1956).

Compound | Androgenic Activity Shionogi, Basal E^−6 (Table 4′, E^−6) [%] | Androgenic Activity Shionogi, Basal E^−7 (Table 4′, E^−7) | further results
COCCOc1cc2c(cc1C(=O)O)C1CCC3(C)C(CCC34CCC(C)(C)C(=O)O4)C1CC2 [EM-1405, 2-Carboxy-3-(2″-methoxyethyloxy)-1,3,5(10)-estratrien-17(R)-spiro-2′-(5′,5′-dimethyl-6′-oxo)tetrahydropyran] | 0 | 0% | –
CN1C(=O)C=C[C@]2(C)C3CC[C@@]4(C)C(CC[C@@]45CCCC(=O)O5)C3CCC12 (stereo partly shown) [EM-1122-CS] | – | – | Androgenic Activity Shlonogl, Basal E^−6 (Table 5 column 9, E^−6): −11%; Androgenic Activity Shlonogl, Basal E^−7 (Table 5 column 9, E^−7): 0%
COCCOc1ccc2c(c1)C(=O)CC1C2CCC2(C)C1CCC21CCC(C)(C)C(=O)O1 (stereo not shown) [EM-1408-CS] | −12 | 0% | –
COc1ccc2c(c1)C(=O)CC1C2CC[C@@]2(C)C1CC[C@@]21CCC(C)(C)C(=O)O1 (stereo partly shown) [EM-1394] | −12 | 4% | –
COCCOc1cc2c(cc1F)C1CCC3(C)C(CCC34CCC(C)(C)C(=O)O4)C1CC2 (stereo not shown) [EM-1393-CS] | −10 | 88% | –
CC(=O)O[C@]1(C)C(=O)CCC2C3C=C(C)C4=CC(=O)C=C[C@]4(C)C3CC[C@@]21C (stereo partly shown) [CS-237] | – | – | Androgenic Activity Shionogi, Basal E^−6 (E^−6): −29; Androgenic Activity Shionogi, Basal E^−7 (E^−7): −22
CC1(C)CC[C@@]2(CCC3C4CCc5cc(C(=O)O)ccc5C4CC[C@@]32C)OC1=O (stereo partly drawn) [EM-1401, 3-Carboxy-1,3,5(10)-estratrien-17(R)-spiro-2′-(5′,5′-dimethyl-6′-oxo)tetrahydropyran] | 0 | 2% | –
CC1CCC2(CCC3C4CCc5ccccc5C4CCC32C)OC1=O (stereo not shown) [EM-1025] | 0 | 5% | –
CC12CCC3c4ccc(F)cc4CCC3C1CCC21CCCC(=O)O1 (stereo not shown) [EM-1170-CS] | −27 | 12% | –
CC1(C)CCC2(CCC3C4CCc5c(cc(Cl)c(O)c5Cl)C4CCC32C)OC1=O (stereo not shown) [EM-1391-CS] | −13 | 0% | –
COC(=O)C1CCC2(CCC3C4CCc5cc(O)ccc5C4CCC32C)OC1=O [PB-132-146, 3-Hydroxy-1,3,5(10)-estratrien-17(R)-2′-(5′-methoxycarbonyl-6′-oxo)tetrahydropyran] | 0 | 29% | –
CCC[C@@H]1CC2C3C=CC4=CC(=O)CC[C@]4(C)C3CC[C@]2(C)C1=O (stereo partly shown) [EM-1097] | – | – | Androgenic Activity Shionogi, Basal E^−6 (E^−6): −12; Androgenic Activity Shionogi, Basal E^−7 (E^−7): 18
CC1(C)CCC2(CCC3C4CCc5cc(OS(C)(=O)=O)ccc5C4CCC32C)OC1=O (stereo not shown) [EM-1365-CS] | −28 | 4% | –
CN(C)C(=O)c1ccc2c(c1)CCC1C2CCC2(C)C1CCC21CCC(C)(C)C(=O)O1 (stereo not shown) [EM-1403] | 0 | 19% | –
CCCC(=O)OC1(C(C)=O)CCC2C3C=C(C)C4=CC(=O)CC(C)C4(C)C3CCC21C (stereo not shown) [CS-245] | – | – | Androgenic Activity Shionogi, Basal (E^−6): −34; Androgenic Activity Shionogi, Basal (E^−7): −28
CCOc1ccc2c(c1)CCC1C2CC[C@@]2(C)C1CC[C@@]21CCC(C)(C)C(=O)O1 (stereo partly drawn) [EM-1369, 3-Ethoxy-1,3,5(10)-estratrien-17(R)-spiro-2′-(5′,5′-dimethyl-6′-oxo)-tetrahydropyran] | 0 | 0% | –
COc1cc2c(cc1C(F)(F)F)C1CCC3(C)C(CCC34CCC(C)(C)C(=O)O4)C1CC2 [EM-1409, 3-Methoxy-2-trifluoromethyl-1,3,5(10)-estratrien-17(R)-spiro-2′-(5′,5′-dimethyl-6′-oxo)tetrahydropyran] | −23 | 5% | –
CC1(C)CCC2(CCC3C4CCc5c(cc(Cl)c(OS(C)(=O)=O)c5Cl)C4CCC32C)OC1=O (stereo not shown) [EM-1392-CS] | −35 | 7% | –

Compound | Androgenic Activity Shionogi, Basal E^−6 (Table 4′, E^−6) [%] | Androgenic Activity Shionogi, Basal E^−7 (Table 4′, E^−7) | further results
CN(C)C(=O)c1cc2c(cc1O)CCC1C2CCC2(C)C1CCC21CCC(C)(C)C(=O)O1 (stereo not shown) [EM-01661-B] | −13 | 0% | –
CCC[C@]1(F)CC2C3C=CC4=CC(=O)CC[C@]4(C)C3CC[C@]2(C)C1=O (stereo partly shown) [EM-1183] | – | – | Androgenic Activity Shionogi, Basal E^−6 (E^−6): −17; Androgenic Activity Shionogi, Basal E^−7 (E^−7): 0
COC(=O)CCCC(=O)O[C@]1(C(C)=O)CC[C@H]2[C@@H]3C=C(C)C4=CC(=O)CC[C@]4(C)[C@H]3CC[C@@]21C [EM-1007, 6-Methyl-4,6-pregnadien-17α-ol-3,20-dione 4′-Carbomethoxybutyrate] | – | – | Androgenic Activity Shionogi, Basal (E^−6): −31; Androgenic Activity Shionogi, Basal (E^−7): 0
CC12CCC3c4ccc(O)cc4CCC3C1CCC21CC=CC(=O)O1 [PB-132-140, 3-hydroxy-1,3,5(10)-estratrien-17(R)-spiro-2′-(4′,5′-dihydro-6′-oxo)pyran] | −18 | 30% | –
CN(C)CCOc1ccc2c(c1)CCC1C2CCC2(C)C1CCC21CCC(C)(C)C(=O)O1 (stereo not shown) [EM-1389-CS] | −41 | 0% | –
COC(=O)c1cc2c(cc1O)CCC1C2CCC2(C)C1CCC21CCC(C)(C)C(=O)O1 (stereo not shown) [EM-01662] | −27 | 0% | –
C[C@]12CCC3c4ccc(O)cc4CCC3C1CC[C@@]21CCCC(=O)O1 (stereo partly drawn) [EM-919, 1,3,5(10)-estratrien-3-ol-17(R)-spiro-2′(6′-oxo)tetrahydropyran] | −17 | +73% | –
CC(=O)[C@@]1(OC(=O)CCCCF)CCC2C3C=C(C)C4=CC(=O)CC[C@]4(C)C3CC[C@@]21C (stereo partly shown) [EM-1195-CS] | – | – | Androgenic Activity Shionogi, Basal (E^−6): −34; Androgenic Activity Shionogi, Basal (E^−7): −27
CC1CCC2(CCC3C4CCc5cc(O)c([N+](=O)[O-])cc5C4CCC32C)OC1=O [EM-1131, 2-Nitro-1,3,5(10)-estratrien-3-ol-17(R)-spiro-2′-(5′-methyl-6′-oxo)tetrahydropyran] | 0 | 0% | –
COc1ccc2c(c1)C(=O)CC1C3CCC4(CCC(C)(C)C(=O)O4)C3(C)CCC21O (stereo not shown) [EM-1386] | −17 | 5% | –
CCS(=O)(=O)Oc1ccc2c(c1)CCC1C2CCC2(C)C1CCC21CCC(C)(C)C(=O)O1 (stereo not shown) [EM-1364-CS] | −16 | 0% | –
COc1c(Br)cc2c(c1Br)CCC1C2CCC2(C)C1CCC21CCC(C)(C)C(=O)O1 (stereo not shown) [EM-1385-CS] | −28 | −11% | –
CC1=C[C@@H]2[C@H](CC[C@]3(C)C(=O)C4(CCCCC4)C[C@@H]23)[C@@]2(C)CCC(=O)C=C12 [EM-925] | – | – | Androgenic Activity Shionogi, Basal E^−6 (E^−6): −4; Androgenic Activity Shionogi, Basal E^−7 (E^−7): 11
CC(=O)O[C@]1(C(=O)N(C)C)CCC2C3C=C(C)C4=CC(=O)CC[C@]4(C)C3CC[C@@]21C (stereo partly shown) [EM-1159] | – | – | Androgenic Activity Shionogi, Basal (E^−6): −14; Androgenic Activity Shionogi, Basal (E^−7): 15
C[C@]12CCC(=O)C=C1C=C[C@@H]1[C@@H]2CC[C@]2(C)C(=O)C3(CC4CC4C3)C[C@@H]12 (stereo partly shown) [EM-1299, 4,6-Androstadien-3,17-dione-16-spirobicyclo[3′.1′.0′]-hexane] | – | – | Androgenic Activity Shionogi, Basal E^−6 (E^−6): 10; Androgenic Activity Shionogi, Basal E^−7 (E^−7): 5
CSCCOc1ccc2c(c1)CCC1C2CCC2(C)C1CCC21CCCC(=O)O1 [CS-242, 3-Methylthioethyloxy-1,3,5(10)-estratrien-17(R)-spiro-2′-(6′-oxo) Tetrahydropyran] | −32 | 0% | –
COc1ccc(CC(=O)O[C@]2(C(C)=O)CCC3C4C=C(C)C5=CC(=O)C=C[C@]5(C)C4CC[C@@]32C)cc1 (stereo partly shown) [EM-1291] | – | – | Androgenic Activity Shionogi, Basal (E^−6): −44; Androgenic Activity Shionogi, Basal (E^−7): −8
